According to paper PMC6413085, “A Validated HPLC-MS/MS Assay for 14-O-[(4,6-Diaminopyrimidine-2-yl)thioacetyl] Mutilin in Biological Samples and Its Pharmacokinetic, Distribution and Excretion via Urine and Feces in Rats” (Molecules, 2019):

Assay: Tissue distribution study in rats;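 as to highest level in cecum: three values per tissue are for i.v. then i.m. then p.o. dosing in that order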;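 as to highest level in jejunum: three values per tissue are for i.v. then i.m. then p.o. dosing in that order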;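 as to highest level in large intestine: three values per tissue are for i.v. then i.m. then p.o. dosing in that order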;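 as to highest level in lung: three values per tissue are for i.v. then i.m. then p.o. dosing in that order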
Assay type: in vivo, Sprague-Dawley rats
Settings: rat, 75 mg/kg; for highest level in cecum / highest level in jejunum / highest level in large intestine / highest level in lung / highest level in small intestine: within the first 24 h
Experimental: We also successfully used the established LC-MS/MS method for detection of the concentration of DPTM in rat tissue homogenates. The quantification of DPTM used the specific standard curves in each corresponding bio-matrix. After i.v., i.m. and p.o. administration of 75 mg/kg DPTM, tissue distribution was investigated at 0.5, 4, 12 and 48 h by collecting the heart, liver, brain, spleen, lung, kidney, large intestine, small intestine, ileum, cecum, bladder, jejunum and colon. Tissue distribution study in rats was performed as described previously. Animals were divided into three groups (n = 12) and DPTM was administered via i.m., i.v. and p.o. with a single dose of 75 mg/kg. A series of heart, liver, spleen, lung, kidney, large intestine, small intestine, ileum, cecum, bladder, brain, jejunum and colon samples were collected before and at 0.5, 4, 12 and 48 h time points after administration and rinsed with phosphate buffer to remove the blood and feces, followed by weighing the wet weight and freezing at −70 °C until analysis. The concentrations of DPTM in rat various tissues were expressed in ng/g and calculated by equation: Ct = Cs × Vs/P, where Ct represented the tissue concentration (ng/g), Cs, Vs and P were the concentration (ng/mL), the volume (mL) and the weight (g) of the tissue samples, respectively.

- amount in colon until 48 h (i.m.): 7849 ± 243 ng/mg
- highest level in cecum (i.m.): 63404 ± 407 ng/mg
- highest level in jejunum (i.m.): 12551 ± 432 ng/mg
- highest level in large intestine (i.m.): 17978 ± 116 ng/mg
- highest level in lung (i.m.): 15345 ± 579 ng/mg
- highest level in small intestine (i.m.): 37890 ± 437 ng/mg
- amount in colon until 48 h (i.v.): 3214 ± 177 ng/mg
- highest level in cecum (i.v.): 62457 ± 675 ng/mg
- highest level in jejunum (i.v.): 23543 ± 799 ng/mg
- highest level in large intestine (i.v.): 31241 ± 355 ng/mg
- highest level in lung (i.v.): 39411 ± 357 ng/mg
- highest level in small intestine (i.v.): 26753 ± 690 ng/mg
- amount in colon until 48 h (p.o.): 22114 ± 215 ng/mg
- highest level in cecum (p.o.): 31087 ± 452 ng/mg
- highest level in jejunum (p.o.): 38769 ± 546 ng/mg
- highest level in large intestine (p.o.): 4123 ± 567 ng/mg
- highest level in lung (p.o.): 14685 ± 654 ng/mg
- highest level in small intestine (p.o.): 6743 ± 474 ng/mg
SMILES: C=CC1(C)CC(OC(=O)CSc2nc(N)cc(N)n2)C2(C)C(C)CCC3(CCC(=O)C32)C(C)C1O (stereo not drawn) [DPTM, 14-O-[(4,6-Diaminopyrimidine-2-yl)thioacetyl] mutilin]
